# Data taken from patent US8664217B2, “Benzodiazepine compound and pharmaceutical composition” (Otsuka Pharmaceutical Co., Ltd., priority 2008, dated 2014).
# Counter-ions that a name gives are not always drawn.
# Target: T1, human GIRK1/4 channels (Homo sapiens, UniProt P48544+P48549)
# T1 construct: Full-length human GIRK1 cDNA was cloned from HuH cell- and HeLa cell-derived cDNA libraries; Full-length GIRK4 cDNA was amplified from a human heart cDNA library; expressed in transfected cells; host or cells: FLP-IN-CHO cells (Invitrogen)
# T1 sequence (P48549 1-501): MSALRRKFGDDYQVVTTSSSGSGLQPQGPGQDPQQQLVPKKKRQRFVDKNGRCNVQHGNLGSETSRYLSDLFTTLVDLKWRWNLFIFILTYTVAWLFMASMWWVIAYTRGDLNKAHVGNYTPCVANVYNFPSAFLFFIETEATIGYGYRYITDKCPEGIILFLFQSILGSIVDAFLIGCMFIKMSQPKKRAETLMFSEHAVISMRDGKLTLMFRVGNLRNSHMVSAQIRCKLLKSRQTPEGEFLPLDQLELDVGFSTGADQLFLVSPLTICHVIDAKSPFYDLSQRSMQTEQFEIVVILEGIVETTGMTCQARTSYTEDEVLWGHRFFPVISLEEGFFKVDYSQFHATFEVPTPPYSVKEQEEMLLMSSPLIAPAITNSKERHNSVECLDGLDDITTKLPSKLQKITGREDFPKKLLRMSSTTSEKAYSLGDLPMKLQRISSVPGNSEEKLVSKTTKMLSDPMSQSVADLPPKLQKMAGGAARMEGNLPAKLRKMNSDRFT
# T1 sequence (P48544 1-419): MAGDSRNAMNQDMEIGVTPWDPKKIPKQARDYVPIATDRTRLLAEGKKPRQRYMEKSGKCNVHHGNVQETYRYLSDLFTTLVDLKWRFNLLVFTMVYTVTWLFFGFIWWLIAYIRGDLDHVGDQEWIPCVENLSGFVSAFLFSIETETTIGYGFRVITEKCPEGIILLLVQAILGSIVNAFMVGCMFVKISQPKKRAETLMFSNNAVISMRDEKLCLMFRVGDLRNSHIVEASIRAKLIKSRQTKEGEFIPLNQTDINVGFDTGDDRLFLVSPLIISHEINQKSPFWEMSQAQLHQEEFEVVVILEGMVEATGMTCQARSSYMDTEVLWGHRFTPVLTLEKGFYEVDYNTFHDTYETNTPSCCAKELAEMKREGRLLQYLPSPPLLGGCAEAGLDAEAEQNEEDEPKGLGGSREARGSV
# Assay: Measurement of human GIRK1/4 channel current by whole-cell patch clamp method (human GIRK1/4-expressing CHO cell line)
# Format: cell-based
# Details: not given
# Method: (2) Production of CHO Cell Line Expressing Human GIRK1/4
# CHO cell lines stably expressing human GIRK1/4 channels were prepared in the following manner.
# Full-length human GIRK1 cDNA was cloned from HuH cell- and HeLa cell-derived cDNA libraries. Full-length GIRK4 cDNA was amplified from a human heart cDNA library (produced by Clontech Laboratories, Inc.) by PCR using synthetic primers shown in Table 1, and cloned into the Eco-RI restriction enzyme site of pCR-Blunt (produced by Invitrogen Corporation) or into the HincII site of pUC118 (produced by Takara Bio, Inc.).
# The obtained human GIRK1 and GIRK4 cDNA sequences correspond to known sequences (NCBI database: GIRK1 (NM_002239) and GIRK4 (NM_000890) respectively). The obtained GIRK1 and GIRK4 cDNA sequences were cloned into the Eco-RI restriction enzyme site of pCR-Blunt (available from Invitrogen Corporation) or into the HincII site of pUC118 (available from Takara Bio, Inc.). A GIRK4 expression vector was constructed by insertion into the BamHI-XhoI site of pcDNA5/FRT. A GIRK1 expression vector was constructed by insertion into the KpnI-XhoI site of pcDNA3.1(+) or pCAG_neo. FLP-IN-CHO cells (produced by Invitrogen Corporation) were transfected with human GIRK1 and GIRK4 expression vectors by using Lipofectamine 2000 (produced by Invitrogen Corporation) according to the protocol enclosed with the reagent or using an electronic induction method (“Nucleofector Kit-T”, produced by Amaxa). First, the cells transfected with the GIRK4 expression vector were cultured in a 10% serum-containing F12 medium (produced by Sigma) supplemented with 600 μg/ml of hygromycin in an incubator with 5% carbon dioxide at 37° C. Then the cells expressing GIRK4 were transfected with the GIRK1 expression vector and were cultured in 10% serum-containing F12 medium supplemented with 350 μg/ml of G418 and 600 μg/ml of hygromycin in an incubator with 5% carbon dioxide at 37° C. to select GIRK1/4 expressing cell lines. Cell populations whose growth was observed after about 2 weeks were isolated using cloning rings, and the obtained single colonies were proliferated. RNA was extracted from single colonies, and single-stranded cDNA was synthesized by a cDNA synthesis kit (produced by Invitrogen Corporation), and the amount of expression was quantified at the mRNA level by real-time PCR (Applied Biosystems, Ltd.). Finally, the expressed current was analyzed by patch clamp method described below. The cell lines expressing a current of 500 pA or more per cell were selected as channel-expressing cell lines for activity measurement by patch clamping method.
# (4) Measurement of Ion Channel Current by Patch Clamp Method (Human GIRK1/4-Expressing CHO-K1 Cell Line)
# An experiment was carried out using a patch clamp setup at room temperature (20 to 26° C.). A perfusion chamber having a diameter of 20 mm (flow rate: about 5 ml/min) was mounted on the stage of a phase-contrast inverted microscope (produced by Nikon Corporation) placed on a vibration isolation table. A poly-L-lysine (produced by Sigma)-coated coverslip (diameter: 15 mm, produced by Matsunami Glass Ind., Ltd.) on which human GIRK1/4-expressing cells were cultured was placed in the perfusion chamber.
# Hyperpolarizing stimulation pulses were applied and ionic current was recorded using a patch clamp amplifier (EPC-7 or EPC-7 PLUS, manufactured by HEKA) and a personal computer (manufactured by IBM Corp.) in which software for data acquisition and analysis of ion channel current (PULSE 8.77, manufactured by HEKA) was installed. The current was measured in the whole-cell configuration of the patch-clamp technique. The tip (resistance: 2 to 4 MΩ) of a borosilicate glass pipette (produced by Sutter Instrument Co.) was gently placed on the cell membrane by using a three-dimensional mechanical micromanipulator (produced by Shoshin EM Corporation). […] Subsequently, stronger suction was applied to break the cell membrane. […]
row,SMILES,IC50 [µM]
1,CCN1C(=O)C(C)(C)C(=O)N(C)c2cc(OCCCN(CCn3ccc4ccccc4c3=O)Cc3ccsc3)ccc21 [Example 125],0.091

# Same assay, conditions: whole-cell patch clamp, human GIRK1/4-expressing CHO cells; step end current at −120 mV; test compound 0.1, 1, 10 μM; read-out: GIRK¼ IC50
row,IC50 [µM],SMILES
1,0.93,"CCN1C(=O)C(C)(C)C(=O)N(C)c2cc(OCCCN(CCc3cccnc3)Cc3ccncc3)ccc21 [Example 8, 1-ethyl-3,3,5-trimethyl-7-{3-[(2-pyridin-3-ylethyl)pyridin-4-ylmethylamino]propoxy}-1,5-dihydrobenzo[b][1,4]diazepine-2,4-dione trihydrochloride]"
2,0.25,"CCN1C(=O)C(C)(C)C(=O)N(C)c2cc(OCCCN(CCn3ccc4ccccc4c3=O)Cc3ccncc3)ccc21 [Example 23, 1-ethyl-3,3,5-trimethyl-7-(3-{[2-(1-oxo-1H-isoquinolin-2-yl)ethyl]pyridin-4-ylmethylamino}propoxy)-1,5-dihydrobenzo[b][1,4]diazepine-2,4-dione dihydrochloride]"
3,2.9,"CCN1C(=O)C(C)(C)C(=O)N(C)c2cc(OCCCN(CCn3ccc4ccoc4c3=O)Cc3ccncc3)ccc21 [Example 31, 1-ethyl-3,3,5-trimethyl-7-(3-{[2-(7-oxo-7H-furo[2,3-c]pyridin-6-yl)ethyl]pyridin-4-ylmethylamino}propoxy)-1,5-dihydrobenzo[b][1,4]diazepine-2,4-dione dihydrochloride]"
4,0.92,"CCN1C(=O)C(C)(C)C(=O)N(C)c2cc(OCCCN(CCn3c(=O)ccc4ccccc43)Cc3ccncc3)ccc21 [Example 63, 1-ethyl-3,3,5-trimethyl-7-(3-{[2-(2-oxo-2H-quinolin-1-yl)ethyl]pyridin-4-ylmethylamino}propoxy)-1,5-dihydrobenzo[b][1,4]diazepine-2,4-dione]"
5,5.1,"CCN1C(=O)C(C)(C)C(=O)N(C)c2cc(OCCCN(CCn3ccc4ccsc4c3=O)Cc3ccncc3)ccc21 [Example 68, 1-ethyl-3,3,5-trimethyl-7-(3-{[2-(7-oxo-7H-thieno[2,3-c]pyridin-6-yl)ethyl]pyridin-4-ylmethylamino}propoxy)-1,5-dihydrobenzo[b][1,4]diazepine-2,4-dione]"
6,0.15,CCN1C(=O)C(C)(C)C(=O)N(C)c2cc(OCCCN(CCn3ccc4ccccc4c3=O)Cc3ccc(C#N)cc3)ccc21 [Example 85]
7,0.27,CCN1C(=O)C(C)(C)C(=O)N(C)c2cc(OCCCN(CCn3ccc4ccccc4c3=O)Cc3ccco3)ccc21 [Example 132]
8,0.49,CCN1C(=O)C(C)(C)C(=O)N(C)c2cc(OCCCN(CCn3ccc4ccoc4c3=O)Cc3ccc(C#N)cc3)ccc21 [Example 380]
9,0.33,CCN1C(=O)C(C)(C)C(=O)N(C)c2cc(OCCCN(CCn3ccc4ccoc4c3=O)Cc3ccc(C(F)(F)F)cc3)ccc21 [Example 395]
10,0.49,CCN1C(=O)C(C)(C)C(=O)N(C)c2cc(OCCCN(CCn3ccc4ccoc4c3=O)Cc3ccccc3C)ccc21 [Example 398]

# The remaining lines, values behind:
row,SMILES,IC50 [µM]
1,"CCCN1C(=O)C(C)(C)C(=O)N(C)c2cc(OCCCN(CCc3cccnc3)Cc3ccncc3)ccc21 [Example 10, 3,3,5-trimethyl-1-propyl-7-{3-[(2-pyridin-3-ylethyl)pyridin-4-ylmethylamino]propoxy}-1,5-dihydrobenzo[b][1,4]diazepine-2,4-dione trihydrochloride]",3.6
2,"CCN1C(=O)C(C)(C)C(=O)N(CC)c2cc(OCCCN(CCc3cccnc3)Cc3ccncc3)ccc21 [Example 14, 1,5-diethyl-3,3-dimethyl-7-{3-[(2-pyridin-3-ylethyl)pyridin-4-ylmethylamino]propoxy}-1,5-dihydrobenzo[b][1,4]diazepine-2,4-dione trihydrochloride]",0.72
3,"CN1C(=O)C(C)(C)C(=O)N(C)c2cc(OCCCN(CCc3cccnc3)Cc3ccncc3)ccc21 [Example 19, 1,3,3,5-tetramethyl-7-{3-[(2-pyridin-3-ylethyl)pyridin-4-ylmethylamino]propoxy}-1,5-dihydrobenzo[b][1,4]diazepine-2,4-dione trihydrochloride]",1.4
4,"CN(CCN(CCCOc1ccc2c(c1)N(C)C(=O)C(C)(C)C(=O)N2C)Cc1ccncc1)C(=O)c1ccccc1 [Example 45, N-methyl-N-(2-{pyridin-4-ylmethyl-[3-(1,3,3,5-tetramethyl-2,4-dioxo-2,3,4,5-tetrahydro-1H-benzo[b][1,4]diazepin-7-yloxy)propyl]amino}ethyl)benzamide dihydrochloride]",2.15
5,"Cc1ccccc1CN(CCCOc1ccc2c(c1)N(C)C(=O)C(C)(C)C(=O)N2C)CCc1cccnc1 [Example 50, 1,3,3,5-tetramethyl-7-{3-[(2-methylbenzyl)-(2-pyridin-3-ylethyl)amino]propoxy}-1,5-dihydrobenzo[b][1,4]diazepine-2,4-dione dihydrochloride]",0.46
6,"CN1C(=O)C(C)(C)C(=O)N(C)c2cc(OCCCN(CCc3cccnc3)Cc3ccnc4ccccc34)ccc21 [Example 51, 1,3,3,5-tetramethyl-7-{3-[(2-pyridin-3-ylethyl)-(quinolin-4-ylmethyl)amino]propoxy}-1,5-dihydrobenzo[b][1,4]diazepine-2,4-dione trihydrochloride]",1.5
7,"CCN1C(=O)C(C)(C)C(=O)N(C)c2cc(OCCCN(CCc3cccnc3)Cc3ccncc3C)ccc21 [Example 54, 1-ethyl-3,3,5-trimethyl-7-{3-[(3-methylpyridin-4-ylmethyl)-(2-pyridin-3-ylethyl)amino]propoxy}-1,5-dihydrobenzo[b][1,4]diazepine-2,4-dione trihydrochloride]",0.97
8,CCN1C(=O)C(C)(C)C(=O)N(C)c2cc(OCCCN(CCc3cccnc3)Cc3ccccc3)ccc21 [Example 200],0.59
9,CCN1C(=O)C(C)(C)C(=O)N(C)c2cc(OCCCN(CCc3cccnc3)Cc3cccc(C#N)c3)ccc21 [Example 229],0.69
10,CCN1C(=O)C(C)(C)C(=O)N(C)c2cc(OCCCN(CCc3cccnc3)Cc3ccccc3-c3cccnc3)ccc21 [Example 242],0.22
11,CCN1C(=O)C(C)(C)C(=O)N(C)c2cc(OCCCN(CCn3ccc4ccoc4c3=O)Cc3cccs3)ccc21 [Example 417],0.98
